Source: patent publication US20250332173A1, “COMPOUNDS AND METHODS FOR MODULATING NUCLEIC ACID SPLICING” (REMIX THERAPEUTICS INC., priority 2021, published 2025)
Like-named read-outs stand apart in the source and are kept apart here.

How the values were obtained:
Type in all cases: cell-based, human
MYB mRNA = test: RT-qPCR splicing assay, MYB canonical junction (CJ) and alternative junction (AJ) mRNA; settings: Homo sapiens; for AC50: increase in MYB alternative junction (AJ) mRNA, read-out: MYB AJ AC50
Method in brief: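 A673 or K562 cells were treated for 24 h at 37 °C with an 11-point 3-fold compound dilution series (top final concentration 10 uM, DMSO ≤0.25%). After lysis, one-step TaqMan RT-qPCR quantified junction transcripts, normalized to PPIA for A673 or to GAPDH/GUSB for K562.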

Target C [1] = test: RT-qPCR splicing assay panel, Target C canonical junction (CJ) mRNA; settings: Homo sapiens; Table 5 panel; canonical junction qPCR; compound concentration having 50% response in CJ decrease; read-out: Target C IC50 (decrease in CJ mRNA levels)
Method in brief: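 Read-out is canonical exon-exon junction mRNA quantified by RT-qPCR against a GAPDH, GUSB or PPIA control. Cells (A673 or K562) received compound for 24 h, top final dose 10 uM in an 11-point 3-fold series.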

Target C [2] = test: HiBiT protein abundance assay, Target C (Promega Nano-Glo HiBiT Lytic Detection System, knock-in K562 cell line); settings: Homo sapiens, K562, 24 h, HiBiT K562 cell line, 24 hours, top dose 10 μM; read-out: Effect on protein abundance, Target C (IC50 category)
Method in brief: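 HiBiT knock-in K562 cells (10,000/well) were treated for 24 h at 37 °C with a 10-point 3-fold dilution series, top final concentration 10 μM, DMSO ≤0.25%. Lytic HiBiT luminescence was read, normalized to unmodified K562 and DMSO-treated controls, and IC50 was interpolated from a four-parameter logistic fit.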

[3] = Table 5 panel, canonical junction qPCR, compound concentration having 50% response in CJ decrease, read-out: MYB IC50 (decrease in CJ mRNA levels)
[4] = decrease in MYB canonical junction (CJ) mRNA, RT-qPCR, read-out: MYB CJ IC50

COc1cccc(Oc2cc(-c3ccc4c(=O)n(C5CCNCC5)ccc4c3)nn3cc(C)nc23)c1 [Compound 547, 6-[8-(3-methoxyphenoxy)-2-methyl-imidazo[1,2-b]pyridazin-6-yl]-2-(4 piperidyl) isoquinolin-1-one]
IC50 (MYB mRNA; [3]): < 0.1 µM
IC50 (MYB mRNA; [4]): < 0.1 µM
AC50 (MYB mRNA; RT-qPCR): < 0.1 µM
IC50 (Target C [1]): < 0.1 µM
IC50 (Target C [2]): < 0.1 µM

Cc1cn2nc(-c3cc(F)c4c(=O)n(C5CCNCC5)ncc4c3)cc(Oc3ccccc3)c2n1 [Compound 548, 8-fluoro-6-(2-methyl-8-phenoxy-imidazo[1,2-b]pyridazin-6-yl)-2-(4-piperidyl)phthala-zin-1-one]
IC50 (MYB mRNA; [3]): < 0.1 µM
IC50 (MYB mRNA; [4]): < 0.1 µM
AC50 (MYB mRNA; RT-qPCR): < 0.1 µM
IC50 (Target C [1]): < 0.1 µM
IC50 (Target C [2]): < 0.1 µM

Cc1cn2nc(-c3ccc4c(=O)n(C5CCNCC5)ncc4c3)cc(Oc3ccccc3)c2n1 [Compound 549, 6-(2-methyl-8-phenoxy-imidazo[1,2-b]pyridazin-6-yl)-2-(4-piperidyl) phthalazin-1-one]
IC50 (MYB mRNA; [3]): < 0.1 µM
IC50 (MYB mRNA; [4]): 0.1 to 1 µM
AC50 (MYB mRNA; RT-qPCR): < 0.1 µM
IC50 (Target C [1]): 0.1 to 1 µM
IC50 (Target C [2]): < 0.1 µM

Cc1cn2nc(-c3ccc4c(=O)n(C5CCNCC5)ccc4c3)cc(Oc3cccnc3)c2n1 [Compound 550, 6-[2-methyl-8-(3-pyridyloxy)imidazo[1,2-b]pyridazin-6-yl]-2-(4-piperidyl)isoquinolin-1-one]
IC50 (MYB mRNA; [3]): < 0.1 µM
IC50 (MYB mRNA; [4]): < 0.1 µM
AC50 (MYB mRNA; RT-qPCR): < 0.1 µM
IC50 (Target C [1]): < 0.1 µM
IC50 (Target C [2]): < 0.1 µM

Cc1cn2nc(-c3ccc4c(=O)n(C5CCNCC5)ccc4c3)cc(-n3ccc(=O)cc3)c2n1 [Compound 551, 6-[2-methyl-8-(4-oxo-1-pyridyl)imidazo[1,2-b]pyridazin-6-yl]-2-(4-piperidyl)isoquinolin-1-one]
IC50 (MYB mRNA; [3]): 0.1 to 1 µM
IC50 (MYB mRNA; [4]): 0.1 to 1 µM
AC50 (MYB mRNA; RT-qPCR): 0.1 to 1 µM
IC50 (Target C [1]): 0.1 to 1 µM
IC50 (Target C [2]): 0.1 to 1 µM

Cc1cn2nc(-c3ccc4c(=O)n(C5CCNCC5)ccc4c3)cc(-n3ccccc3=O)c2n1 [Compound 552, 6-[2-methyl-8-(2-oxo-1-pyridyl)imidazo[1,2-b]pyridazin-6-yl]-2-(4-piperidyl)isoquinolin-1-one]
IC50 (MYB mRNA; [3]): > 10 µM
IC50 (MYB mRNA; [4]): > 10 µM
AC50 (MYB mRNA; RT-qPCR): > 10 µM
IC50 (Target C [1]): > 10 µM
IC50 (Target C [2]): > 10 µM

Cc1cn2nc(-c3cc(O)c4c(=O)n(C5CCN(CCF)CC5)ncc4c3)cc(C)c2n1 [Compound 553]
IC50 (MYB mRNA; [3]): 0.1 to 1 µM
IC50 (MYB mRNA; [4]): 0.1 to 1 µM
AC50 (MYB mRNA; RT-qPCR): 0.1 to 1 µM
IC50 (Target C [1]): 0.1 to 1 µM
IC50 (Target C [2]): 0.1 to 1 µM

Cc1cc(-c2cc(F)c3c(=O)n(C4CCNC5(CC5)C4)ncc3c2)cc2cn(C)nc12 (stereo not shown) [Compound 554]
IC50 (MYB mRNA; [3]): 0.1 to 1 µM
IC50 (MYB mRNA; [4]): 0.1 to 1 µM
AC50 (MYB mRNA; RT-qPCR): 0.1 to 1 µM
IC50 (Target C [1]): 0.1 to 1 µM
IC50 (Target C [2]): 0.1 to 1 µM

Cc1nc2c(C)cc(-c3cc(F)c4c(=O)n(C5CCNC6(CC6)C5)ncc4c3)cc2o1 (stereo not shown) [Compound 555]
IC50 (MYB mRNA; [3]): 0.1 to 1 µM
IC50 (MYB mRNA; [4]): 0.1 to 1 µM
AC50 (MYB mRNA; RT-qPCR): 0.1 to 1 µM
IC50 (Target C [1]): 0.1 to 1 µM
IC50 (Target C [2]): 0.1 to 1 µM

Cc1cn2cc(-c3cc(F)c4c(=O)n(C5CCNC6(CC6)C5)ncc4c3)cc(Cl)c2n1 (stereo not shown) [Compound 556]
IC50 (MYB mRNA; [3]): 0.1 to 1 µM
IC50 (MYB mRNA; [4]): 0.1 to 1 µM
AC50 (MYB mRNA; RT-qPCR): 0.1 to 1 µM
IC50 (Target C [1]): 1 to 10 µM
IC50 (Target C [2]): 0.1 to 1 µM

Cc1cn2cc(-c3cc(O)c4c(=O)n(C5CCNC6(CC6)C5)ncc4c3)cc(Cl)c2n1 (stereo not shown) [Compound 557]
IC50 (MYB mRNA; [3]): 0.1 to 1 µM
IC50 (MYB mRNA; [4]): 0.1 to 1 µM
AC50 (MYB mRNA; RT-qPCR): 0.1 to 1 µM
IC50 (Target C [1]): 1 to 10 µM
IC50 (Target C [2]): 0.1 to 1 µM

CCc1cn(C2CCNCC2)c(=O)c2c(F)cc(-c3cc(F)c4nc(C)cn4c3)cc12 [Compound 558, 4-ethyl-8-fluoro-6-{8-fluoro-2-methylimidazo[1,2-a]pyridin-6-yl}-2-(piperidin-4-yl)isoquinolin-1-one]
IC50 (MYB mRNA; [3]): 0.1 to 1 µM
IC50 (MYB mRNA; [4]): 0.1 to 1 µM
AC50 (MYB mRNA; RT-qPCR): 0.1 to 1 µM
IC50 (Target C [1]): 1 to 10 µM
IC50 (Target C [2]): 1 to 10 µM

C=Cc1cn(C2CCNCC2)c(=O)c2c(F)cc(-c3cc(F)c4nc(C)cn4c3)cc12 [Compound 559, 4-ethenyl-8-fluoro-6-{8-fluoro-2-methylimidazo[1,2-a]pyridin-6-yl}-2-(piperidin-4-yl)isoquinolin-1-one]
IC50 (MYB mRNA; [3]): < 0.1 µM
IC50 (MYB mRNA; [4]): < 0.1 µM
AC50 (MYB mRNA; RT-qPCR): < 0.1 µM
IC50 (Target C [1]): 0.1 to 1 µM
IC50 (Target C [2]): 0.1 to 1 µM

Cc1cn2cc(-c3ccc4c(=O)n(C5CCNCC5)ccc4c3)cc(C#N)c2n1 [Compound 560, 2-methyl-6-[1-oxo-2-(piperidin-4-yl)isoquinolin-6-yl]imidazo[1,2-a]pyridine-8-carbonitrile]
IC50 (MYB mRNA; [3]): 0.1 to 1 µM
IC50 (MYB mRNA; [4]): 0.1 to 1 µM
AC50 (MYB mRNA; RT-qPCR): 0.1 to 1 µM
IC50 (Target C [1]): 1 to 10 µM
IC50 (Target C [2]): 0.1 to 1 µM

Cc1cc(-c2cc(O)c3c(=O)n(C4CCNC5(CC5)C4)ncc3c2)cc2cn(C)nc12 (stereo not shown) [Compound 561]
IC50 (MYB mRNA; [3]): 1 to 10 µM
IC50 (MYB mRNA; [4]): 0.1 to 1 µM
AC50 (MYB mRNA; RT-qPCR): 1 to 10 µM
IC50 (Target C [1]): 1 to 10 µM
IC50 (Target C [2]): 0.1 to 1 µM

Cc1cn2nc(-c3cc4ncn(C5CCNCC5)c(=O)c4cc3F)cc(C)c2n1 [Compound 585, 7-{2,8-dimethylimidazo[1,2-b]pyridazin-6-yl}-6-fluoro-3-(piperidin-4-yl)quinazolin-4-one]
IC50 (MYB mRNA; [3]): 1 to 10 µM
IC50 (MYB mRNA; [4]): 1 to 10 µM
AC50 (MYB mRNA; RT-qPCR): 1 to 10 µM
IC50 (Target C [1]): 1 to 10 µM
IC50 (Target C [2]): 1 to 10 µM

Cc1cn2cc(-c3cc4ncn(C5CCNCC5)c(=O)c4cc3F)cc(F)c2n1 [Compound 586, 6-fluoro-7-{8-fluoro-2-methylimidazo[1,2-a]pyridin-6-yl}-3-(piperidin-4-yl)quinazolin-4-one]
IC50 (MYB mRNA; [3]): 0.1 to 1 µM
IC50 (MYB mRNA; [4]): 0.1 to 1 µM
AC50 (MYB mRNA; RT-qPCR): 0.1 to 1 µM
IC50 (Target C [1]): 1 to 10 µM
IC50 (Target C [2]): 1 to 10 µM

Cc1cn2cc(-c3cc(O)c4c(=O)n(C5CCNCC5)cnc4c3)cc(F)c2n1 [Compound 587, 7-{8-fluoro-2-methylimidazo[1,2-a]pyridin-6-yl}-5-hydroxy-3-(piperidin-4-yl)quinazolin-4-one]
IC50 (MYB mRNA; [3]): < 0.1 µM
IC50 (MYB mRNA; [4]): < 0.1 µM
AC50 (MYB mRNA; RT-qPCR): < 0.1 µM
IC50 (Target C [1]): 0.1 to 1 µM
IC50 (Target C [2]): 0.1 to 1 µM

Cc1cn2cc(-c3cc(F)c4c(=O)n(C5CCNCC5)cnc4c3)cc(C#N)c2n1 [Compound 588]
IC50 (MYB mRNA; [3]): 0.1 to 1 µM
IC50 (MYB mRNA; [4]): 1 to 10 µM
AC50 (MYB mRNA; RT-qPCR): 0.1 to 1 µM
IC50 (Target C [1]): 0.1 to 1 µM
IC50 (Target C [2]): 1 to 10 µM

Cc1cn2nc(-c3cc(F)c4c(=O)n(C5CCNC5)cnc4c3)cc(C)c2n1 (stereo not shown) [Compound 589, 7-{2,8-dimethylimidazo[1,2-b]pyridazin-6-yl}-5-fluoro-3-(pyrrolidin-3-yl)quinazolin-4-one]
IC50 (MYB mRNA; [3]): 1 to 10 µM
IC50 (MYB mRNA; [4]): 1 to 10 µM
AC50 (MYB mRNA; RT-qPCR): 1 to 10 µM
IC50 (Target C [1]): > 10 µM
IC50 (Target C [2]): > 10 µM

Cc1cn2nc(-c3cc(F)c4c(=O)n([C@@H]5CCN(C)C6(CC6)C5)ncc4c3)cc(C)c2n1 [Compound 637]
IC50 (MYB mRNA; [3]): < 0.1 µM
IC50 (MYB mRNA; [4]): < 0.1 µM
AC50 (MYB mRNA; RT-qPCR): < 0.1 µM
IC50 (Target C [1]): < 0.1 µM
IC50 (Target C [2]): < 0.1 µM

Cc1cn2nc(-c3cc(F)c4c(=O)n([C@H]5CCN(C)C6(CC6)C5)ncc4c3)cc(C)c2n1 [Compound 638]
IC50 (MYB mRNA; [3]): < 0.1 µM
IC50 (MYB mRNA; [4]): 0.1 to 1 µM
AC50 (MYB mRNA; RT-qPCR): < 0.1 µM
IC50 (Target C [1]): < 0.1 µM
IC50 (Target C [2]): < 0.1 µM

Cc1cn2nc(-c3cc4ccn([C@@H]5CCNC5)c(=O)c4cc3O)cc(C)c2n1 [Compound 640, 6-(2,8-dimethylimidazo[1,2-b]pyridazin-6-yl)-7-hydroxy-2-[(3R)-pyrrolidin-3-yl]isoquinolin-1-one]
IC50 (MYB mRNA; [3]): 0.1 to 1 µM
IC50 (MYB mRNA; [4]): 0.1 to 1 µM
AC50 (MYB mRNA; RT-qPCR): 0.1 to 1 µM
IC50 (Target C [1]): 1 to 10 µM
IC50 (Target C [2]): 1 to 10 µM
